Data on nine molecules can be found in the SangsterLogP compilation.

In general, logP refers to a log measure of how a compound divides between an organic and an aqueous phase. For the molecule `CC1=C(C(=O)O)N2C(=O)C(NC(=O)Cc3ccco3)C2SC1` (centres undefined), the logP was -0.13.
In the case of `CC(=O)OCC1=C(C(=O)O)N2C(=O)C(NC(=O)Cc3ccc([N+](=O)[O-])o3)C2SC1` (centres undefined), the logP was 0.72.
In the case of `CC(=O)OCC1=C(C(=O)O)N2C(=O)C(NC(=O)Cc3ccc(-c4ccc(Cl)cc4)o3)C2SC1` (centres undefined), the logP stood at 2.76.
In the case of `CC1=C(C(=O)O)N2C(=O)C(NC(=O)Cc3ccc(-c4ccccc4)o3)C2SC1` (centres undefined) it was 1.66.
Take `CC1=C(C(=O)O)N2C(=O)C(NC(=O)Cc3ccc(-c4ccc(Cl)cc4)o3)C2SC1` (centres undefined): the logP came to 2.38.
In the case of `CC(=O)OCC1=C(C(=O)O)N2C(=O)C(NC(=O)Cc3ccc(-c4c(Cl)cccc4Cl)o3)C2SC1` (centres undefined) it was 2.78; in that of `CC(=O)OCC1=C(C(=O)O)N2C(=O)C(NC(=O)Cc3ccc(-c4ccccc4Cl)o3)C2SC1` (centres undefined), 2.42.
On to `CC1=C(C(=O)O)N2C(=O)C(NC(=O)Cc3ccc(-c4c(Cl)cccc4Cl)o3)C2SC1` (centres undefined), for which the logP stood at 3.6.
In the case of `CC(=O)OCC1=C(C(=O)O)N2C(=O)C(NC(=O)Cc3ccco3)C2SC1` (centres undefined) it was 0.09.
